# Structures can show the parent of a compound that is named as a salt.
# Target: T1, human LPA1 (Homo sapiens, UniProt Q92633)
# T1 construct: expressed in transfected cells; host or cells: Chinese hamster ovary (CHO) cells
# Assay: LPA1 functional antagonist assay (LPA-induced calcium flux in CHO cells overexpressing human LPA1)
# Type: cell-based
# Details: inhibition of calcium flux induced by 10 nM LPA, CHO cells overexpressing human LPA1; read-out: hLPA1 IC50
# Method: The effectiveness of compounds of the present invention as LPA1 inhibitors can be determined in an LPA1 functional antagonist assay as follows:
# Chinese hamster ovary cells overexpressing human LPA1 were plated overnight (15,000 cells/well) in poly-D-lysine coated 384-well microplates (Greiner bio-one, Cat #781946) in DMEM/F12 medium (Gibco, Cat #11039). Following overnight culture, cells were loaded with calcium indicator dye (AAT Bioquest Inc, Cat #34601) for 30 minutes at 37° C. The cells were then equilibrated to room temperature for 30 minutes before the assay. Test compounds solubilized in DMSO were transferred to 384 well non-binding surface plates (Corning, Cat #3575) using the Labcyte Echo acoustic dispense and diluted with assay buffer [IX HBSS with calcium/magnesium (Gibco Cat #14025-092), 20 mM HEPES (Gibco Cat #15630-080) and 0.1% fatty acid free BSA (Sigma Cat #A9205)] to a final concentration of 0.5% DMSO. Diluted compounds were added to the cells by FDSS6000 (Hamamatsu) at final concentrations ranging from 0.08 nM to 5 μM. and were then incubated for 20 min at room temperature at which time LPA (Avanti Polar Lipids Cat #857130C) was added at final concentrations of 10 nM to stimulate the cells. The compound IC50 value was defined as the concentration of test compound which inhibited 50% of the calcium flux induced by LPA alone. IC50 values were determined by fitting data to a 4-parameter logistic equation (GraphPad Prism, San Diego Calif.).
# T1 sequence (Q92633 whole entry): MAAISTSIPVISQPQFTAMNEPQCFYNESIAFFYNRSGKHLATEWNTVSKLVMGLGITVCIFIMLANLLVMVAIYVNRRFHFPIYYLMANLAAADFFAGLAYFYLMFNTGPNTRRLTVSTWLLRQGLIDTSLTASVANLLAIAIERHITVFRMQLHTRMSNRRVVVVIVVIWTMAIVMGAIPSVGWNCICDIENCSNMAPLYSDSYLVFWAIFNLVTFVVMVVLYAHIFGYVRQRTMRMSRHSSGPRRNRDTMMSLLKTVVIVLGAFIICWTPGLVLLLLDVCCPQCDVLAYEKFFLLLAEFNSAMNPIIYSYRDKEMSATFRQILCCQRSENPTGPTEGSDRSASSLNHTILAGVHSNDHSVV
row,IC50 [nM],Structure (SMILES)
1,33,"Cc1nc(-c2nnn(C)c2CNc2cnn(CC3CCC3)n2)ccc1O[C@H]1CCC[C@H](C(=O)O)C1 [Example 24, (1 S,3 S)-3-((6-(5-(((2-(cyclobutylmethyl)-2H-1,2,3-triazol-4-yl)amino)methyl)-1-methyl-1H-1,2,3-triazol-4-yl)-2-methylpyridin-3-yl)oxy)cyclohexane-1-carboxylic acid]"
2,125,"Cc1nc(-c2nnn(C)c2CNc2ncn(CC(C)C)n2)ccc1O[C@H]1CCC[C@H](C(=O)O)C1 [Example 25, (1 S,3 S)-3-((6-(5-(((1-isobutyl-1H-1,2,4-triazol-3-yl)amino)methyl)-1-methyl-1H-1,2,3-triazol-4-yl)-2-methylpyridin-3-yl)oxy)cyclohexane-1-carboxylic acid]"
3,3650,Cc1nc(-c2nnn(C)c2CNc2nc(C)c(C)s2)ccc1O[C@H]1CCC[C@H](C(=O)O)C1 [Example 26]
4,100,Cc1nc(-c2nnn(C)c2CNc2cnn(C3CCCCC3)n2)ccc1O[C@H]1CCC[C@H](C(=O)O)C1 [Example 27]
5,39,Cc1nc(-c2nnn(C)c2CNc2cnn(C3CCCC3)n2)ccc1O[C@H]1CCC[C@H](C(=O)O)C1 [Example 28]
6,297,CCCn1ncc(NCc2c(-c3ccc(O[C@H]4CCC[C@H](C(=O)O)C4)c(C)n3)nnn2C)n1 [Example 29]
7,91,Cc1nc(-c2nnn(C)c2CNc2cnn(C3CCC3)n2)ccc1O[C@H]1CCC[C@H](C(=O)O)C1 [Example 30]
8,54,Cc1nc(-c2nnn(C)c2CNc2cnn(CC3CC3)n2)ccc1O[C@H]1CCC[C@H](C(=O)O)C1 [Example 31]
9,10,Cc1nc(-c2nnn(C)c2CNc2cnn(-c3ccccc3)n2)ccc1O[C@H]1CCC[C@H](C(=O)O)C1 [Example 32]
10,84,"Cc1nc(-c2nnn(C)c2CNc2cnn(-c3ccc(F)cc3)n2)ccc1O[C@H]1CCC[C@H](C(=O)O)C1 [Example 33, (1 S,3 S)-3-((6-(5-(((2-(4-fluorophenyl)-2H-1,2,3-triazol-4-yl)amino)methyl)-1-methyl-1H-1,2,3-triazol-4-yl)-2-methylpyridin-3-yl)oxy)cyclohexane-1-carboxylic acid]"
11,332,Cc1nc(-c2nnn(C)c2CNc2ncn(Cc3ccccc3)n2)ccc1O[C@H]1CCC[C@H](C(=O)O)C1 [Example 34]
12,309,CCCn1cnc(NCc2c(-c3ccc(O[C@H]4CCC[C@H](C(=O)O)C4)c(C)n3)nnn2C)n1 [Example 35]
13,147,Cc1nc(-c2nnn(C)c2CNc2ncn(C3CCCCC3)n2)ccc1O[C@H]1CCC[C@H](C(=O)O)C1 [Example 36]
14,46,Cc1nc(-c2nnn(C)c2CNc2nc(C)n(-c3ccccc3)n2)ccc1O[C@H]1CCC[C@H](C(=O)O)C1 [Example 37]
15,34,Cc1nc(-c2nnn(C)c2CNc2ncn(-c3ccccc3)n2)ccc1O[C@H]1CCC[C@H](C(=O)O)C1 [Example 38]
16,61,Cc1nc(-c2nnn(C)c2CNc2ncn(-c3ccc(F)cc3)n2)ccc1O[C@H]1CCC[C@H](C(=O)O)C1 [Example 39]
17,46,Cc1nc(-c2nnn(C)c2CNc2ncn(-c3cc(F)cc(F)c3)n2)ccc1O[C@H]1CCC[C@H](C(=O)O)C1 [Example 40]
18,221,"Cc1nc(-c2nnn(C)c2Cn2nc(Cc3ccccc3)oc2=N)ccc1O[C@H]1CCC[C@H](C(=O)O)C1 [Example 41, (1S,3S)-3-((6-(5-((5-Benzyl-2-imino-1,3,4-oxadiazol-3(2H)-yl)methyl)-1-methyl-1H-1,2,3-triazol-4-yl)-2-methylpyridin-3-yl)oxy)cyclohexane-1-carboxylic acid, bis TFA salt]"
19,1410,"Cc1nc(-c2nnn(C)c2CNc2nnc(C(C)C)o2)ccc1O[C@H]1CCC[C@H](C(=O)O)C1 [Example 42, (1S,3S)-3-((6-(5-(((5-Isopropyl-1,3,4-oxadiazol-2-yl)amino)methyl)-1-methyl-1H-1,2,3-triazol-4-yl)-2-methylpyridin-3-yl)oxy)cyclohexane-1-carboxylic acid, 2 TFA salt]"
20,76,"CCCCc1noc(NCc2c(-c3ccc(O[C@H]4CCC[C@H](C(=O)O)C4)c(C)n3)nnn2C)n1 [Example 43, (1S,3S)-3-((6-(5-(((3-Butyl-1,2,4-oxadiazol-5-yl)amino)methyl)-1-methyl-1H-1,2,3-triazol-4-yl)-2-methylpyridin-3-yl)oxy)cyclohexane-1-carboxylic acid, bis TFA salt]"
21,105,"Cc1nc(-c2nnn(C)c2CNc2nc(C3CCC3)no2)ccc1O[C@H]1CCC[C@H](C(=O)O)C1 [Example 44, (1S,3S)-3-((6-(5-(((3-Cyclobutyl-1,2,4-oxadiazol-5-yl)amino)methyl)-1-methyl-1H-1,2,3-triazol-4-yl)-2-methylpyridin-3-yl)oxy)cyclohexane-1-carboxylic acid, 2 TFA salt]"
22,228,Cc1nc(-c2nnn(C)c2Cn2nc(C3CCCC3)oc2=N)ccc1O[C@H]1CCC[C@H](C(=O)O)C1 [Example 45]
23,137,Cc1nc(-c2nnn(C)c2Cn2nc(C3CCC3)oc2=N)ccc1O[C@H]1CCC[C@H](C(=O)O)C1 [Example 46]
24,595,Cc1nc(-c2nnn(C)c2CNc2nnc(C(F)(F)F)o2)ccc1O[C@H]1CCC[C@H](C(=O)O)C1 [Example 47]
25,209,Cc1nc(-c2nnn(C)c2CNc2nnc(C3CCCC3)o2)ccc1O[C@H]1CCC[C@H](C(=O)O)C1 [Example 48]

row,IC50 [nM],Structure (SMILES)
1,180,Cc1nc(-c2nnn(C)c2CNc2nnc(-c3ccccc3)o2)ccc1O[C@H]1CCC[C@H](C(=O)O)C1 [Example 49]
2,96,Cc1nc(-c2nnn(C)c2CNc2nnc(Cc3ccccc3)o2)ccc1O[C@H]1CCC[C@H](C(=O)O)C1 [Example 50]
3,59,Cc1nc(-c2nnn(C)c2CNc2nnc(C3CCC3)o2)ccc1O[C@H]1CCC[C@H](C(=O)O)C1 [Example 51]
4,396,CCCc1nnc(NCc2c(-c3ccc(O[C@H]4CCC[C@H](C(=O)O)C4)c(C)n3)nnn2C)o1 [Example 52]
5,297,CCCCc1nnc(NCc2c(-c3ccc(O[C@H]4CCC[C@H](C(=O)O)C4)c(C)n3)nnn2C)o1 [Example 53]
6,191,Cc1nc(-c2nnn(C)c2CNc2nnc(CC(C)C)o2)ccc1O[C@H]1CCC[C@H](C(=O)O)C1 [Example 54]
7,45,Cc1nc(-c2nnn(C)c2CNc2nnc(CCC(C)C)o2)ccc1O[C@H]1CCC[C@H](C(=O)O)C1 [Example 55]
8,136,Cc1nc(-c2nnn(C)c2CNc2nnc(CC3CC3)o2)ccc1O[C@H]1CCC[C@H](C(=O)O)C1 [Example 56]
9,204,Cc1nc(-c2nnn(C)c2CNc2nnc(C3CCCCC3)o2)ccc1O[C@H]1CCC[C@H](C(=O)O)C1 [Example 57]
10,316,Cc1nc(-c2nnn(C)c2CNc2nc(C3CC3)no2)ccc1O[C@H]1CCC[C@H](C(=O)O)C1 [Example 58]
11,495,Cc1nc(-c2nnn(C)c2CNc2nc(C(C)C)no2)ccc1O[C@H]1CCC[C@H](C(=O)O)C1 [Example 59]
12,478,Cc1nc(-c2nnn(C)c2CNc2nc(C(C)(C)C)no2)ccc1O[C@H]1CCC[C@H](C(=O)O)C1 [Example 60]
13,26,Cc1nc(-c2nnn(C)c2CNc2nc(-c3ccccc3)no2)ccc1O[C@H]1CCC[C@H](C(=O)O)C1 [Example 61]
14,43,Cc1nc(-c2nnn(C)c2CNc2nc(C3CCCC3)no2)ccc1O[C@H]1CCC[C@H](C(=O)O)C1 [Example 62]
15,38,Cc1nc(-c2nnn(C)c2CNc2nc(Cc3ccccc3)no2)ccc1O[C@H]1CCC[C@H](C(=O)O)C1 [Example 63]
16,105,Cc1nc(-c2nnn(C)c2CNc2nc(CC3CC3)no2)ccc1O[C@H]1CCC[C@H](C(=O)O)C1 [Example 64]
17,23,Cc1nc(-c2nnn(C)c2CNc2noc(-c3ccccc3)n2)ccc1O[C@H]1CCC[C@H](C(=O)O)C1 [Example 65]
18,15,CCCCc1nc(NCc2c(-c3ccc(O[C@H]4CCC[C@H](C(=O)O)C4)c(C)n3)nnn2C)no1 [Example 66]
19,14,Cc1nc(-c2nnn(C)c2CNc2noc(Cc3ccccc3)n2)ccc1O[C@H]1CCC[C@H](C(=O)O)C1 [Example 67]
20,42,CCCc1nc(NCc2c(-c3ccc(O[C@H]4CCC[C@H](C(=O)O)C4)c(C)n3)nnn2C)no1 [Example 68]
21,15,Cc1nc(-c2nnn(C)c2CNc2noc(CCC(C)C)n2)ccc1O[C@H]1CCC[C@H](C(=O)O)C1 [Example 69]
22,33,Cc1nc(-c2nnn(C)c2CNc2noc(CC(C)C)n2)ccc1O[C@H]1CCC[C@H](C(=O)O)C1 [Example 71]
23,4,Cc1nc(-c2nnn(C)c2CNc2noc(CC3CCC3)n2)ccc1O[C@H]1CCC[C@H](C(=O)O)C1 [Example 72]
24,55,"Cc1nc(-c2nnn(C)c2Cc2nnc(Cc3ccccc3)o2)ccc1O[C@H]1CCC[C@H](C(=O)O)C1 [Example 73, (1 S,3 S)-3-((6-(5-((5-benzyl-1,3,4-oxadiazol-2-yl)methyl)-1-methyl-1H-1,2,3-triazol-4-yl)-2-methylpyridin-3-yl)oxy)cyclohexane-1-carboxylic acid]"
25,227,CCCCc1nnc(Cc2c(-c3ccc(O[C@H]4CCC[C@H](C(=O)O)C4)c(C)n3)nnn2C)o1 [Example 74]
